# Test results: patent US20240400564A1 (Syndax Pharmaceuticals, Inc, priority 2021, published 2024)
# Where two headings read alike, the source gives them in different places.
# Experiments:
# [1] = target: T1, human Menin and N-terminal portion of human MLL (amino acids 4-43) (Homo sapiens, UniProt O00255); test: Menin-MLL competition assay (HTRF); type: binding; conditions: 1 hr incubation
# T1 construct: H-FL-Menin diluted to 4 nM in assay buffer
# T1 sequence (O00255 1-610): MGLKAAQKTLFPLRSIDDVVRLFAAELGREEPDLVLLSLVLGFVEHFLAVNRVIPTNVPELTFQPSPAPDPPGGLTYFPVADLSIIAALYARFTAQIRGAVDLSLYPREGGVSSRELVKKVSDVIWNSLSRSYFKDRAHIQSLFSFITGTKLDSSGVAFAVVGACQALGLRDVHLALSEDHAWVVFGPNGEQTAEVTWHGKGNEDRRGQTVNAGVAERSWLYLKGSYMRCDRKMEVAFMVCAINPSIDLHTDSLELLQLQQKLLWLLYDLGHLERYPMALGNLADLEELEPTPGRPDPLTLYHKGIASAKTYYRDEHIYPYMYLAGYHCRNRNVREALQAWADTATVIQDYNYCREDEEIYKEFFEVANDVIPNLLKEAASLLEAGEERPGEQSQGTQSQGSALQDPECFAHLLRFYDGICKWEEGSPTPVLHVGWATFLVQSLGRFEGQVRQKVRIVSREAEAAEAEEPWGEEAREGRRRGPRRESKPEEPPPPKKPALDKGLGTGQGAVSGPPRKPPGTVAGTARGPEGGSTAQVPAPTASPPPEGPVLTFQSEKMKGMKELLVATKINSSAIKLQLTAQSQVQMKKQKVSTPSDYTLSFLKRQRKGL
# Source text: Menin-MLL is a competition assay between human Menin and N-terminal portion of human MLL representing amino acids 4-43 of the protein. The interaction between Menin and MLL peptide was monitored by HTRF employing Terbium labeled anti-His6 antibody directed to the N-terminal His6-tag on recombinant Menin and FITC group covalently attached to the MLL peptide. The N-terminal fragment of MLL, retained in all MLL fusion proteins, is involved in the interactions with Menin, and this protein-protein interaction is critical for the MLL fusion proteins mediated leukemogenic transformations.
# For IC50 determination test compounds were prepared as 10 mM DMSO stock solutions. Considering DMSO as the vehicle in the assay system. Lower sub-stocks of 50 μM were prepared from the 10 mM stock solution. To test the compounds in assay, 3.16-fold serial dilutions are made in 100% DMSO. Mid-stock of 50×compounds (50 μM) were serially diluted (3.16 fold) in 100% DMSO in Polypropylene plate. In assay plate 1 micro-litre of the previously prepared compound dilution was stamped. H-FL-Menin diluted to 4 nM in assay buffer (50 mM Tris-HCl, pH 7.4, 50 mM NaCl, freshly prepared 1 mM DTT, 0.01% BSA, 0.005% Triton X-100) was pre-incubated with 8 nM anti-His6-Tb for 30 min at room temperature. FITC-MLL-4-43 was diluted to 2 nM in assay buffer and 25 μL was dispensed into each well of the assay plate followed by addition of 25 μl of pre-incubated H-FL-Menin and anti-His6-Tb mixture. Final concentration H-FL-Menin diluted to 1 nM in assay plate with 2 nM anti-His6-Tb and 1 nM FITC-MLL-4-43. After 1 hr incubation at room temperature, the HTRF signal was measured on the Spark multi-label plate reader. Resulting data were captured as a ratio of RFU520/RFU485×1000. The max values were obtained from 0% inhibition in presence of 2% DMSO and the min. values were 100% inhibition in presence of 1 μM reference compound.
# [2] = test system: MLLr leukemia cell line MV4-11; test: Cell proliferation assay MV4;11 (CellTiter-Glo, 72 hours); type: cell-based; conditions: Homo sapiens, read-out: MV4
# Summary of the method: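 Cells in IMDM/10% FBS, seeded from a 15,000 cells/ml suspension, were exposed for 72 h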
# [3] = target: hERG (Homo sapiens, UniProt Q12809); test: Patch clamp assay (hERG tail currents, whole-cell)
# hERG, sequence (Q12809 whole entry): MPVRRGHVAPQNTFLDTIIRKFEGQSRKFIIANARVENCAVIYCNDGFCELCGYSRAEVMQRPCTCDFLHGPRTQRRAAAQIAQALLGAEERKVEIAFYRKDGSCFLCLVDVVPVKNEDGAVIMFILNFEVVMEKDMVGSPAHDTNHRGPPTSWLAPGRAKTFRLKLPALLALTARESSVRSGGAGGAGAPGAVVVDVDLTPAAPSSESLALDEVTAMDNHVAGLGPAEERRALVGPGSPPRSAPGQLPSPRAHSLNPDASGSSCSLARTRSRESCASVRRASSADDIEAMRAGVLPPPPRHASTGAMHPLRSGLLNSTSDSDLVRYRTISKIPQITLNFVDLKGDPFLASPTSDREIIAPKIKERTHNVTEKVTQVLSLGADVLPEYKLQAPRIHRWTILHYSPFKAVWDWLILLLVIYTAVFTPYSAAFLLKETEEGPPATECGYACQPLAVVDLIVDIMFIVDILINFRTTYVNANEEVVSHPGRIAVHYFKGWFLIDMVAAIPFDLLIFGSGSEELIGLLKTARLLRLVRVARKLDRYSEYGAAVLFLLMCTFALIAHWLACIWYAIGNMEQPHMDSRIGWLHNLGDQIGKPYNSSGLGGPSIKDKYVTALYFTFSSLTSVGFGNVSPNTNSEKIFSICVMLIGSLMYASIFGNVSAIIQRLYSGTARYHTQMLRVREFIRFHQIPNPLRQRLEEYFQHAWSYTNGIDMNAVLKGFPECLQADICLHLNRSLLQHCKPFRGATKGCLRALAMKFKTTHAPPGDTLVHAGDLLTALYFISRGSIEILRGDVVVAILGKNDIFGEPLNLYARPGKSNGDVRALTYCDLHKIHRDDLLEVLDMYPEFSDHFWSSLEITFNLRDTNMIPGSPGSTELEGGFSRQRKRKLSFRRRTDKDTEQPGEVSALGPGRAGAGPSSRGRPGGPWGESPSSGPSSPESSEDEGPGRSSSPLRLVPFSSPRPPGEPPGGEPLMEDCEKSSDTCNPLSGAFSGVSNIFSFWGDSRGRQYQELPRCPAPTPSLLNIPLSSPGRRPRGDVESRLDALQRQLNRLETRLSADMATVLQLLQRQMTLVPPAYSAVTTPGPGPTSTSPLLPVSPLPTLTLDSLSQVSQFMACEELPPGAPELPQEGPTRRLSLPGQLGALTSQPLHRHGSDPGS
# [4] = MV4-11 cells, 72 hours, CellTiter-Glo, 11 IC50
structure (smiles),measurement,setting,value
"CCN(C(=O)c1cc(F)ccc1Oc1cncnc1N1CC2(CCN(C[C@@H]3CC[C@@H](NS(=O)(=O)C(C)C)CO3)CC2)C1)C(C)C [Example 3, N-Ethyl-5-fluoro-N-isopropyl-2-((4-(7-(((2S,5R)-5-((1-methylethyl)sulfonamido)tetrahydro-2H-pyran-2-yl)methyl)-2,7-diazaspiro[3.5]nonan-2-yl)pyrimidin-5-yl)oxy)benzamide]",IC50,[1],< 100 nM
"CCN(C(=O)c1cc(F)ccc1Oc1cncnc1N1CC2(CCN(C[C@@H]3CC[C@@H](NS(=O)(=O)C4COC4)CO3)CC2)C1)C(C)C [Example 5, N-Ethyl-5-fluoro-N-isopropyl-2-((4-(7-(((2S,5R)-5-(oxetane-3-sulfonamido)tetrahydro-2H-pyran-2-yl)methyl)-2,7-diazaspiro[3.5]nonan-2-yl)pyrimidin-5-yl)oxy)benzamide]",IC50,[1],< 100 nM
"CCN(C(=O)c1cc(F)ccc1Oc1cncnc1N1CC2(CCN(C[C@@H]3CC[C@@H](NS(=O)(=O)CC4CC4)CO3)CC2)C1)C(C)C [Example 7, 2-((4-(7-(((2S,5R)-5-((Cyclopropylmethyl)sulfonamido)tetrahydro-2H-pyran-2-yl)methyl)-2,7-diazaspiro[3.5]nonan-2-yl)pyrimidin-5-yl)oxy)-N-ethyl-5-fluoro-N-isopropylbenzamide]",IC50,[1],< 100 nM
"CCN(C(=O)c1cc(F)ccc1Oc1cncnc1N1CC2(CCN(C[C@@H]3CC[C@@H](NS(=O)(=O)CCOC)CO3)CC2)C1)C(C)C [Example 8, N-Ethyl-5-fluoro-N-isopropyl-2-((4-(7-(((2S,5R)-5-((2-methoxyethyl)sulfonamido)tetrahydro-2H-pyran-2-yl)methyl)-2,7-diazaspiro[3.5]nonan-2-yl)pyrimidin-5-yl)oxy)benzamide]",IC50,[1],< 100 nM
"CCN(C(=O)c1cc(F)ccc1Oc1cncnc1N1CC2(CCN(C[C@@H]3CC[C@@H](NS(=O)(=O)N4CCC[C@@H]4C)CO3)CC2)C1)C(C)C [Example 201, N-Ethyl-5-fluoro-N-isopropyl-2-((4-(7-(((2S,5R)-5-(((S)-2-methylpyrrolidine)-1-sulfonamido)tetrahydro-2H-pyran-2-yl)methyl)-2,7-diazaspiro[3.5]nonan-2-yl)pyrimidin-5-yl)oxy)benzamide]",IC50,[2]; [4],< 100 nM
same,hERG % Remaining,[3]; 10 μM compound,+ (<33%)
same,hERG % Remaining,[3]; 30 μM compound,+ (<33%)
"CC(C)N(C(=O)c1cc(F)ccc1Oc1cncnc1N1CC2(CCN(C[C@@H]3CC[C@@H](NS(=O)(=O)N4CCC[C@@H]4C)CO3)CC2)C1)C(C)C [Example 202, 5-Fluoro-N,N-diisopropyl-2-((4-(7-(((2S,5R)-5-(((S)-2-methylpyrrolidine)-1-sulfonamido)tetrahydro-2H-pyran-2-yl)methyl)-2,7-diazaspiro[3.5]nonan-2-yl)pyrimidin-5-yl)oxy)benzamide]",IC50,[2]; [4],< 100 nM
same,hERG % Remaining,[3]; 30 μM compound,+ (<33%)
"CC(C)N(C(=O)c1cc(F)ccc1Oc1cncnc1N1CC2(CCN(C[C@@H]3CC[C@@H](NS(=O)(=O)N4CCC[C@H]4C)CO3)CC2)C1)C(C)C [Example 203, 5-Fluoro-N,N-diisopropyl-2-((4-(7-(((2S,5R)-5-(((R)-2-methylpyrrolidine)-1-sulfonamido)tetrahydro-2H-pyran-2-yl)methyl)-2,7-diazaspiro[3.5]nonan-2-yl)pyrimidin-5-yl)oxy)benzamide]",IC50,[2]; [4],< 100 nM
same,hERG % Remaining,[3]; 30 μM compound,+ (<33%)
"C[C@@H]1COC[C@@H](C)N1C(=O)c1cc(F)ccc1Oc1cncnc1N1CC2(CCN(C[C@@H]3CC[C@@H](NS(=O)(=O)N4CCC[C@H]4C)CO3)CC2)C1 [Example 208, (R)-N-((3R,6S)-6-((2-(5-(2-((3R,5R)-3,5-Dimethylmorpholine-4-carbonyl)-4-fluorophenoxy)pyrimidin-4-yl)-2,7-diazaspiro[3.5]nonan-7-yl)methyl)tetrahydro-2H-pyran-3-yl)-2-methylpyrrolidine-1-sulfonamide]",IC50,[2]; [4],< 100 nM
same,hERG % Remaining,[3]; 30 μM compound,+++ (≥66%)
"CO[C@H]1CCN(S(=O)(=O)N[C@@H]2CC[C@@H](CN3CCC4(CC3)CN(c3ncncc3Oc3ccc(F)cc3C(=O)N(C(C)C)C(C)C)C4)OC2)C1 [Example 210, 5-Fluoro-N,N-diisopropyl-2-((4-(7-(((2S,5R)-5-(((S)-3-methoxypyrrolidine)-1-sulfonamido)tetrahydro-2H-pyran-2-yl)methyl)-2,7-diazaspiro[3.5]nonan-2-yl)pyrimidin-5-yl)oxy)benzamide]",IC50,[2]; [4],< 100 nM
same,hERG % Remaining,[3]; 30 μM compound,+++ (≥66%)
"CO[C@@H]1CCN(S(=O)(=O)N[C@@H]2CC[C@@H](CN3CCC4(CC3)CN(c3ncncc3Oc3ccc(F)cc3C(=O)N(C(C)C)C(C)C)C4)OC2)C1 [Example 211, 5-Fluoro-N,N-diisopropyl-2-((4-(7-(((2S,5R)-5-(((R)-3-methoxypyrrolidine)-1-sulfonamido)tetrahydro-2H-pyran-2-yl)methyl)-2,7-diazaspiro[3.5]nonan-2-yl)pyrimidin-5-yl)oxy)benzamide]",IC50,[2]; [4],< 100 nM
same,hERG % Remaining,[3]; 30 μM compound,+++ (≥66%)
"CCN(C(=O)c1cc(F)ccc1Oc1cncnc1N1CC2(CCN(C[C@@H]3CC[C@@H](NS(=O)(=O)c4ccc(=O)[nH]c4C)CO3)CC2)C1)C(C)C [Example 217, N-Ethyl-5-fluoro-N-isopropyl-2-((4-(7-(((2S,5R)-5-((2-methyl-6-oxo-1,6-dihydropyridine)-3-sulfonamido)tetrahydro-2H-pyran-2-yl)methyl)-2,7-diazaspiro[3.5]nonan-2-yl)pyrimidin-5-yl)oxy)benzamide]",IC50,[2]; [4],< 100 nM
same,hERG % Remaining,[3]; 30 μM compound,+++ (≥66%)
"CCN(C(=O)c1cc(F)ccc1Oc1cncnc1N1CC2(CCN(C[C@@H]3CC[C@@H](NS(=O)(=O)c4c[nH]c(=O)c(C)c4)CO3)CC2)C1)C(C)C [Example 218, N-Ethyl-5-fluoro-N-isopropyl-2-((4-(7-(((2S,5R)-5-((5-methyl-6-oxo-1,6-dihydropyridine)-3-sulfonamido)tetrahydro-2H-pyran-2-yl)methyl)-2,7-diazaspiro[3.5]nonan-2-yl)pyrimidin-5-yl)oxy)benzamide]",IC50,[2]; [4],< 100 nM
same,hERG % Remaining,[3]; 30 μM compound,+ (<33%)
"CC(C)N(C(=O)c1cc(F)ccc1Oc1cncnc1N1CC2(CCN(C[C@@H]3CC[C@@H](NS(=O)(=O)N4CC5COCC5C4)CO3)CC2)C1)C(C)C (stereo partly drawn) [Example 224, 5-Fluoro-2-((4-(7-(((2S,5R)-5-((hexahydro-1H-furo[3,4-c]pyrrole)-5-sulfonamido)tetrahydro-2H-pyran-2-yl)methyl)-2,7-diazaspiro[3.5]nonan-2-yl)pyrimidin-5-yl)oxy)-N,N-diisopropylbenzamide]",IC50,[2]; [4],< 100 nM
same,hERG % Remaining,[3]; 30 μM compound,+++ (≥66%)
"CCS(=O)(=NC)N[C@@H]1CC[C@@H](CN2CCC3(CC2)CN(c2ncncc2Oc2ccc(F)cc2C(=O)N(C(C)C)C(C)C)C3)OC1 (stereo partly drawn) [Example 231, 5-Fluoro-N,N-diisopropyl-2-((4-(7-(((2S,5R)-5-(N′-methylethylsulfonoamidimidamido)tetrahydro-2H-pyran-2-yl)methyl)-2,7-diazaspiro[3.5]nonan-2-yl)pyrimidin-5-yl)oxy)benzamide]",IC50,"[2]; MV4-11, 72 h, 11 IC50 (nM)",< 100 nM
same,hERG % Remaining,[3]; 30 μM compound,+++ (≥66%)
"CC(C)N(CC(F)F)C(=O)c1cc(F)ccc1Oc1cncnc1N1CC2(CCN(C[C@@H]3CC[C@@H](NS(=O)(=O)c4nn(C)cc4F)CO3)CC2)C1 [Example 241, N-(2,2-Difluoroethyl)-5-fluoro-2-((4-(7-(((2S,5R)-5-((4-fluoro-1-methyl-1H-pyrazole)-3-sulfonamido)tetrahydro-2H-pyran-2-yl)methyl)-2,7-diazaspiro[3.5]nonan-2-yl)pyrimidin-5-yl)oxy)-N-isopropylbenzamide]",IC50,[2]; [4],< 100 nM
same,hERG % Remaining,[3]; 30 μM compound,++ (233% and ≤66%)
